Consider eleven molecules from US9663514B2 (Takeda Pharmaceutical Company Limited, priority 2011, dated 2017).

The assay has as its target T1, SYK (Homo sapiens, UniProt P43405).
T1 construct: The SYK kinase domain (residues 356-635) is amplified via PCR; made in house; host or cells: Sf9 insect cells (baculovirus, pFastBac1)
Description: SYK inhibition: in vitro assay of SYK-mediated phosphorylation of FAM-labeled substrate (Caliper LC-3000). The note with it: SYK kinase domain (residues 356-635); 2.4 nM SYK and 45 μM ATP, 3 μM 5FAM-KKKKEEIYFFFG-NH2, RT 60 min, pH 7.3; pIC50 = −log(IC50), IC50 molar. The assay is classed as biochemical.
Turning to `N[C@H]1CCCC[C@H]1Nc1nc(C#Cc2ccccc2)c2c(c1F)CNC2=O` [Example 43, 6-((1R,2S)-2-Aminocyclohexylamino)-7-fluoro-4-(phenylethynyl)-1H-pyrrolo[3,4-c]pyridin-3(2H)-one], the IC50 (in general, the concentration that gives 50% inhibition) was 63.1 nM.
Consider `Cc1ccn2ncc(-c3nc(N[C@@H]4CCCC[C@@H]4N)c(F)c4c3C(=O)NC4)c2c1` [Example 59, 6-(((1R,2S)-2-Aminocyclohexyl)amino)-7-fluoro-4-(5-methylpyrazolo[1,5-a]pyridin-3-yl)-1H-pyrrolo[3,4-c]pyridin-3(2H)-one], for which the midpoint of inhibition, the IC50, lay at 2.51 nM.
Regarding `N[C@H]1CCCC[C@H]1Nc1nc(-c2cc3c(F)cccc3s2)c2c(c1F)CNC2=O` [Example 24, 6-((1R,2S)-2-Aminocyclohexylamino)-7-fluoro-4-(4-fluorobenzo[b]thiophen-2-yl)-1H-pyrrolo[3,4-c]pyridin-3(2H)-one], the IC50 was 0.398 nM.
Regarding `Cc1cc(-c2nc(N[C@@H]3CCOC[C@@H]3N)c(F)c3c2C(=O)N[C@@H]3C)sn1` [Example 56, (R)-6-(((3R,4R)-3-Aminotetrahydro-2H-pyran-4-yl)amino)-7-fluoro-1-methyl-4-(3-methylisothiazol-5-yl)-1H-pyrrolo[3,4-c]pyridin-3(2H)-one], the IC50 was 15.8 nM.
Under `N[C@H]1COCC[C@H]1Nc1nc(/C=C/c2ccc(Cl)cc2)c2c(c1F)CNC2=O` [Example 51] stands 2 nM.
For the molecule `N[C@H]1CCCC[C@H]1Nc1nc(-c2cc3cccnc3s2)c2c(c1F)CNC2=O` [Example 14, 6-((1R,2S)-2-Aminocyclohexylamino)-7-fluoro-4-(thieno[2,3-b]pyridin-2-yl)-1H-pyrrolo[3,4-c]pyridin-3(2H)-one], the midpoint of inhibition, the IC50, lay at 0.158 nM.
`N[C@H]1COCC[C@H]1Nc1nc(-c2cc3ncccc3s2)c2c(c1F)CNC2=O` [Example 25, 6-((3R,4R)-3-Aminotetrahydro-2H-pyran-4-ylamino)-7-fluoro-4-(thieno[3,2-b]pyridin-2-yl)-1H-pyrrolo[3,4-c]pyridin-3(2H)-one]: half-maximal inhibition (IC50) was put at 12.6 nM.
Next, `N[C@H]1COCC[C@H]1Nc1nc(/C=C/c2ccc(F)cc2)c2c(c1F)CNC2=O` [Example 46, 6-((3R,4R)-3-Aminotetrahydro-2H-pyran-4-ylamino)-7-fluoro-4-(4-fluorostyryl)-1H-pyrrolo[3,4-c]pyridin-3(2H)-one]: 5.01 nM; `Cc1cc(-c2nc(N[C@@H]3CCOC[C@@H]3N)c(F)c3c2C(=O)N[C@H]3C)sn1` [Example 57, (S)-6-(((3R,4R)-3-Aminotetrahydro-2H-pyran-4-yl)amino)-7-fluoro-1-methyl-4-(3-methylisothiazol-5-yl)-1H-pyrrolo[3,4-c]pyridin-3(2H)-one]: 100 nM; `N[C@H]1COCC[C@H]1Nc1nc(CCc2ccccc2)c2c(c1F)CNC2=O` [Example 48]: 100 nM.
Next, `Cc1ccn2ncc(-c3nc(N[C@@H]4CCOC[C@@H]4N)c(F)c4c3C(=O)NC4)c2c1` [Example 58, 6-(((3R,4R)-3-Aminotetrahydro-2H-pyran-4-yl)amino)-7-fluoro-4-(5-methylpyrazolo[1,5-a]pyridin-3-yl)-1H-pyrrolo[3,4-c]pyridin-3 (2H)-one]: 12.6 nM.
